US20220257635A1, “INJECTABLE NUTRITIONAL SUPPLEMENT” (CHEMVET AUSTRALIA PTY LTD, priority 2019, published 2022)

Assay: Stability storage of the Comparative Example 1 formulation at 5° C. and 40° C. (75% RH), vitamin B12 analysed
Assay type: physicochemical
Settings: in formulation of Table 2; for Vitamin B12 T = 1 month (mg/mL) 5° C.: 1 month at 5° C.; for Vitamin B12 T = 1 month (mg/mL) 40° C.: 1 month at 40° C. (75% RH); for Vitamin B12 T = 0 (mg/mL) 5° C.: T = 0, 5° C. sample; for Vitamin B12 T = 0 (mg/mL) 40° C.: T = 0, 40° C. (75% RH) sample
Protocol: To the formulation of Table 1, water-soluble disodium Copper EDTA and disodium Zinc EDTA, were successfully added at the rate of 107 g/L and 285 g/L respectively and then topped up with water to the required volume.
This formulation was sent to Chemical Analysis, and analysed at 0 time and placed on stability storage at 5° C. and 40° C. (75% RH).

Row | Substance | Vitamin B12 T = 1 month (mg/mL) 5° C. | Vitamin B12 T = 1 month (mg/mL) 40° C. | Vitamin B12 T = 0 (mg/mL) 5° C. | Vitamin B12 T = 0 (mg/mL) 40° C.
1 | Cyanocobalamin | 0.23 mg/mL | 0.14 mg/mL | 0.24 mg/mL | 0.24 mg/mL
2 | Hydroxocobalamin Acetate | 0.26 mg/mL | 0.03 mg/mL | 0.49 mg/mL | 0.49 mg/mL
